Test results published in a melting point compilation (Tetko et al.; mined from patent text by program, amines drawn as free bases though some values may be those of a salt).

In the case of `OCC1Cn2c(nc3ccccc32)-c2ccccc2O1` (stereo unspecified), the melting point is reported as 142 to 144 °C.
With `O=C(CC(O)c1ccncc1)c1ccccc1O` (stereo unspecified) the melting point was 150 °C.
`CCOC(=O)Cc1c(C)n(CCCc2ccccc2)c2cccc(OCc3csc(-c4ccccc4)n3)c12` showed a melting point of 90 to 94 °C.
In the case of `CCOCc1nc2c(N)nc3cc(-c4cccc(C(N)=O)c4)cnc3c2n1CC(C)(C)O`, the melting point is reported as over 250 °C.
`O=C(Cc1ccccc1)Nc1ccc(-c2ccc(C(=O)O)c(=O)[nH]2)cc1` gave a melting point of over 280 °C.
Compound `O=C(O)CCc1oc(Cl)nc1-c1ccc(Cl)cc1` has a melting point of 169 to 170 °C.
Work on `CCC(=O)c1c(C)cc(NC(C)(C)C)nc1NC(C)(C)C` yielded a melting point of 102 to 103 °C.
`COc1ccc(S(=O)(=O)N(CCNS(C)(=O)=O)c2ccc(Cl)cc2Cc2c(F)cccc2F)cc1OC` gave a melting point of 133 °C.
Work on `CCCCc1oc2ccccc2c1C(=O)NCc1ccc2c(-c3ccc(Cl)cc3)c(OCC#N)ccc2c1` yielded a melting point of 154 to 158 °C.
With `O=C1C(c2ccccc2)=C(c2cccc(Cl)c2)C(=O)N1c1ccc(Cl)cc1` the melting point was 51 °C.
In the case of `CCCOc1ccc(F)c2c(=O)c(-c3ccc(OC)cc3)cn(CCN3CCOCC3)c12`, the melting point is reported as 206 to 208 °C.
With `CC(C)(C)[Si](C)(C)O[C@@H]1C[C@]2(O)C[C@@H](OC2=O)[C@@H]1O` the melting point was 90 to 94 °C.
`CCN1C(=O)C(C(=O)Nc2ccc(F)cc2)c2cc3c(cc21)CC(C)(C)O3` (stereo unspecified) showed a melting point of 160 to 162 °C.
In the case of `COc1cccc(-c2nc3n(n2)Cc2cc(OC)c(OC)cc2-3)c1`, the melting point is reported as 186 to 187 °C.
In the case of `COC(=O)c1ccc(Oc2ccccc2C=O)c([N+](=O)[O-])c1`, the melting point is reported as 109 to 110 °C.
For `Oc1ccc2cc(-c3cnc(-c4ccccc4)o3)ccc2c1`, the melting point was 235 to 238 °C.
`CC(=O)OCc1c(C#N)cnc2c(NC(=O)c3c(Cl)cccc3Cl)cccc12` gave a melting point of 201 to 203 °C.
For `O=C1SCCN1Cc1ccccc1`, the melting point was 50 to 51 °C.
`FC(F)(F)c1nnc2c3cc(Cl)ccc3ccn12` showed a melting point of 228 °C.
With `N#CC1=CC2(CCSCC2)Oc2ccc([N+](=O)[O-])cc21` the melting point was 175 to 176 °C.
`CC12CCC(OC(=O)c3ccc(Cl)cc3)CC1=CCC1C2CCC2(C)C(=NO)CCC12` (stereo unspecified) gave a melting point of 167 to 170 °C.
`CCOC(OCC)c1cccc2c1Sc1c(C=O)cccc1N2C` gave a melting point of 154 °C.
In the case of `O=C(NO)[C@H](CNS(=O)(=O)c1ccc(OCC2CC2)cc1)N1CCOCC1`, the melting point is reported as 147 °C.
For `CC(C)Oc1cc([N+](=O)[O-])c(F)cc1C#N`, the melting point was 116 to 118 °C.
Work on `COc1ccc(C2(C#Cc3ccc([N+](=O)[O-])cc3)CCC3(CC2)OCCO3)cc1OC1CCCC1` yielded a melting point of 58 to 59 °C.
`Nc1nnc(-c2ccc3ncn(-c4ccc(OC(F)(F)F)c(Cl)c4)c3c2)o1` showed a melting point of 238 to 239 °C.
Work on `CN=C(SC)N(C)Cc1cccnc1Cl` yielded a melting point of 106 to 113 °C.
For `Nc1ccc(Sc2cccc3cnccc23)cc1NCc1ccccc1`, the melting point was 125 to 127 °C.
Compound `COc1cc2nc(N)nc(-c3cccc(Br)c3)c2cc1OC` has a melting point of 246 to 249 °C.
`Nc1ccc(OCc2ccc(Cl)nc2)cc1F` showed a melting point of 101 °C.
`COc1ccc2cc(OCc3ccccc3)c(N)cc2c1` showed a melting point of 149 to 151 °C.
Compound `Cc1cnn(-c2ccc(C(=O)N3Cc4cccn4Cc4ccccc43)cc2)c1` has a melting point of 179 to 181 °C.
`CCCCc1cc2ccccc2c(Oc2ccc(/C=C/C(=O)O)cc2)c1-c1ccc(F)cc1` showed a melting point of 169 to 170 °C.
`CCCc1c(OCc2ccc(CBr)cc2)ccc(C(C)=O)c1O` gave a melting point of 98 to 99 °C.
Compound `CCOC(=O)COc1ccc(CCCOC(=O)NCC2CC2)c(Oc2ncc(C(F)(F)F)cc2Cl)c1` has a melting point of 113 °C.
`O=C(O)CC1(c2cccc(F)c2)NC(=O)NC1=O` (stereo unspecified) showed a melting point of 206 to 208 °C.
In the case of `CCOc1cc(CCCOc2c(C)cc(-c3noc(C4CC4)n3)cc2C)on1`, the melting point is reported as 70 to 71 °C.
Compound `O=C(O)CCC(=NOCc1ccc(OCc2cn3c(-c4ccccc4)cccc3n2)cc1)c1ccccc1` has a melting point of 160 to 161 °C.
`CC(N)c1nnc(Cc2cccc3ccccc23)[nH]c1=O` (stereo unspecified) showed a melting point of 180 °C.
With `CSC(C)=NOC(=O)N(C)SN(C(C)C)P1(=O)OCCCO1` the melting point was 134 to 135 °C.
For `COc1cc(OC)cc(-c2nc[nH]c2-c2ccc(OC(F)F)c(O)c2)c1`, the melting point was 159 to 161 °C.
For `O=C(O)Cn1c(-c2ccccc2)c(Cc2nc3c(F)c(F)cc(F)c3s2)c2ccccc21`, the melting point was 238 to 239 °C.
In the case of `COc1ccc(Cn2ccnc2C=Cc2ccc([N+](=O)[O-])o2)cc1`, the melting point is reported as 151 to 152 °C.
Work on `CC(C)c1c(-c2cc(C(F)(F)F)cc(C(F)(F)F)c2)ccc2nc(N)nc(N)c12` yielded a melting point of 212 to 214 °C.
Compound `COC(=O)COc1c(CCC(C)C)c(OC)cc(OC)c1C(=O)CCc1ccc(OC)c(O)c1` has a melting point of 94 to 95 °C.
In the case of `COc1ccc(CSc2ccc(OCC(=O)O)c3c2CCC3)cc1OCc1ccc(C(F)(F)F)cc1`, the melting point is reported as 150 to 151 °C.
`CCCOc1cc(C2(C)CNC(=O)O2)ccc1OC` (stereo unspecified) showed a melting point of 78 °C.
Work on `COC[C@H]1CCCN1C(=O)c1cc(-c2ccccc2)c(=O)n2ccc3ccc(Cl)cc3c12` yielded a melting point of 137 to 140 °C.
In the case of `COC(=O)C1CC(C(CC(O)C(CC2CCCCC2)NC(=O)C(Cc2c[nH]cn2)NC(=O)C(Cc2ccccc2)NC(=O)OC(C)(C)C)C(C)C)OC1=O` (stereo unspecified), the melting point is reported as 95 °C.
Work on `COc1ccc(C2=NN(c3ccc(C(=O)O)cc3)C(=O)[C@H]3CC=CC[C@@H]23)cc1Cl` (relative stereo) yielded a melting point of 222 to 224 °C.
`COc1cccc(NN)n1` showed a melting point of 30 to 40 °C.
`Cc1cc(C)c(C(O)c2ccc(-n3ccnc3)c(Cl)c2)c(C)c1` (stereo unspecified) gave a melting point of 156 to 157 °C.
`COc1ccc2c(c1)c(Cc1cc(=O)n(C3CCCCC3)[nH]1)c(C)n2C(=O)c1ccc(Cl)cc1` gave a melting point of 187 to 188 °C.
Compound `CC(=O)Sc1ccc(C#C[Si](C)(C)C)cc1` has a melting point of 45 to 47 °C.
`COc1c(C(=O)O)sc(C)c1C` gave a melting point of 142 to 143 °C.
For `CCOC(OCC)C(C#N)(C=O)Cc1cc(OC)c(OC)c(OC)c1` (stereo unspecified), the melting point was 109 to 115 °C.
With `Cn1cc2c([C@H]3C[C@H]3CN)cccc2n1` (relative stereo) the melting point was 155 to 156 °C.
`Nc1snc2nc(-c3ccccc3)sc12` gave a melting point of 176 to 179 °C.
`CCOC(=O)c1cn(C)c2cc(Cl)sc2c1=O` gave a melting point of 168 to 171 °C.
With `COc1cc(C=CC(=O)Nc2cnc3ccc(C)cc3c2-c2ccccc2C)cc(OC)c1OC(C)=O` the melting point was 242 to 243 °C.
`O=C(NC(=O)c1c(Cl)cccc1Cl)Nc1ccc(OC(F)(F)C(Cl)Cl)cc1` gave a melting point of 211 to 213 °C.
For `COC1CCC(S(=O)(=O)c2ccccc2)O1` (stereo unspecified), the melting point was 68 °C.
With `O=C(c1ccc(NS(=O)(=O)c2ccccc2Cl)cc1)N1Cc2cccn2Cc2ccccc21` the melting point was 206 to 210 °C.
With `Cc1ccc2c(NCc3ccc(NC(=O)C4CCN(Cc5ccccc5)CC4)cc3)nc(N3CCCC3)nc2c1` the melting point was 96 °C.
`CCOC(=O)c1cc(C(Br)Br)cnc1Br` showed a melting point of 88 to 89 °C.
In the case of `O=CC1=C(Cl)Nc2cc(Cl)c(F)cc2C1`, the melting point is reported as 260 °C.
Compound `CC1(C)C(c2cccs2)=NN=C1c1cccs1` has a melting point of 153 to 156 °C.
Work on `COc1cc2cc3c(Nc4ccc(Sc5nccn5C)c(Cl)c4)c(C#N)cnc3cc2cc1OCCCN1CCOCC1` yielded a melting point of 230 to 235 °C.
`O=C(NC(c1ccccc1)c1ccccc1)c1c[nH]cn1` showed a melting point of 201 to 202 °C.
Work on `Cc1cc(SC(C)C)c(NC(=O)CCCSc2nc3cccc(C(F)(F)F)c3o2)c(SC(C)C)n1` yielded a melting point of 135 to 136 °C.
Compound `CC(=O)c1ccc(-n2c(C)ccc2-c2ccc(S(C)(=O)=O)cc2)cc1` has a melting point of 179 to 180 °C.
Work on `O=C(O)Cc1c(C(=O)O)c2cc(Oc3ccc(Cl)c(F)c3)ccc2n1-c1ccccc1` yielded a melting point of 174 to 176 °C.
For `Cc1ccc(C)c(Oc2oc(-c3ccc(Cl)cc3)nc2CC(=O)O)c1`, the melting point was 185 °C.
For `CCCCC(=O)N(Cc1ccc(OC)cc1)c1cc(F)cc(-c2nnn[nH]2)c1`, the melting point was 122 to 125 °C.
For `CC(C)(C)c1cc2c(c(C(C)(C)C)c1O)CCO2`, the melting point was 113 °C.
`COc1ccc(NS(C)(=O)=O)nc1` showed a melting point of 156 to 158 °C.
With `Oc1cnc2c(O)cccc2c1` the melting point was 139 to 141 °C.
In the case of `COC(=O)CC(NC(=O)OC(C)(C)C)c1ccc(O)cc1` (stereo unspecified), the melting point is reported as 119 to 120 °C.
Compound `Cc1ccc(C(=O)Nc2c(NC(=O)CN3CCCCC3)ccc3c2C(=O)c2ccccc2C3=O)cc1` has a melting point of 213 to 214 °C.
In the case of `CCNc1nc(C)c(-c2ccnc(Nc3ccc(N4CCSCC4)cc3)n2)s1`, the melting point is reported as 207 to 209 °C.
With `Cn1c(C(F)(F)F)cc(=O)n(-c2cc(OCC(=O)c3ccccc3)c(Cl)cc2F)c1=O` the melting point was 152 to 153 °C.
For `COC(=O)c1c(Cl)cc(Cl)cc1NC(=O)CSc1cccc(OC)c1`, the melting point was 89 to 90 °C.
With `Cc1ccc(-c2cc(C(F)(F)F)n3cnc(-c4cccnc4)c3n2)cc1C(F)(F)F` the melting point was 236 °C.
For `Cc1cc(N2CCOCC2)nc(N)c1N`, the melting point was 97 to 108 °C.
`COc1ccc(C(=O)N2CCN(C(=O)C3=Cc4cc(OC)c(OC)cc4CC3)CC2)cc1OC` showed a melting point of 190 to 191 °C.
Work on `CCCCCCCNC(=O)Nc1ccc(N(C)C)cc1C(=O)NC(C)(C)C1CCN(C(c2ccccc2)c2ccccc2)CC1` yielded a melting point of 190 °C.
In the case of `c1cc(N2CCCN(c3ccc(-c4ccc5c(c4)OCO5)cn3)CC2)ncc1-c1ccc2c(c1)OCO2`, the melting point is reported as 235 to 237 °C.
With `CCOC(=O)C1=C(C)NC(C)=C(C(=O)OC(C)C)C1c1cccc([N+](=O)[O-])c1` (stereo unspecified) the melting point was 148 °C.
Work on `N#Cc1ccc(OCc2ccncc2)cc1OC(C(=O)O)c1ccccc1` (racemic) yielded a melting point of 218 to 220 °C.
In the case of `NC(=O)c1nnc2n1-c1sc(Cl)cc1C(c1ccccc1Cl)=NC2`, the melting point is reported as 248 to 251 °C.
`CC(=O)OS(=O)(=O)c1ccc(C)cc1` showed a melting point of 56 to 60 °C.
`Cc1ccc(Cn2c(=O)cc(C(C)C(=O)O)c3cc(C)ccc32)cc1` (stereo unspecified) gave a melting point of 188 to 190 °C.
`Oc1ccc2c(-c3ccc(Cl)cc3)noc2c1` gave a melting point of 203 °C.
For `CC1(C)CC(OC(=O)c2ccccc2)CC(C)(C)N1O`, the melting point was 145 to 149 °C.
Work on `CCCCCCC(=O)Nc1ccn(C2OC(CO)C(O)C2O)c(=O)n1` (stereo unspecified) yielded a melting point of 131 to 136 °C.
`COc1cc(C(=O)N2CCC(CCN3CCC(C(=O)c4nc5ccccc5n4Cc4ccc(F)cc4)CC3)(c3ccccc3)C2)cc(OC)c1OC` (stereo unspecified) showed a melting point of 107 to 109 °C.
